Patent publication US6114326A, “Use of cabergoline in the treatment of restless legs syndrome” (priority 1999, dated 2000)

Experiments:
D2 family of receptors = settings: cited from earlier work
[1] = test system: restless legs syndrome patients; assay: Polysomnography in 12-week open label pilot trial of single evening cabergoline dose in RLS; format: in vivo
Procedure: Cabergoline in RLS, ENS, Nice, Abstract.
Efficacy was assessed by polysomnography and subjective ratings.
Following a 2-week baseline period, all patients were treated with cabergoline in an open trial for 12 weeks. Apart from levodopa, patients had to stop taking any medication known to have positive or negative effect on RLS two weeks before baseline (i.e., other dopamine agonists, benzodiazepines, opioids or other psychotropic agents). Patients who were on levodopa therapy were allowed to either stop levodopa prior to study entry or to continue, taper or discontinue levodopa during the study. To prevent well known peripheral dopaminergic side-effects such as nausea, vomiting, vertigo and arterial hypotension domperidone (not available in the United States) was comedicated initially and also tapered if possible. […] Neurological case history, examination, electrocardiogramm, chest x-ray and polysomnography were performed to ensure that selection criteria were fulfilled. A two-night PSG (including one night of adaptation) was performed to evaluate the diagnosis and inclusion/exclusion criteria regardless if patients were on or off levodopa. After a 12-week treatment period patients were studied again for one night in the sleep laboratory. Subjective ratings were obtained at baseline, week 4, week 8 and at the endpoint after 12 weeks. In addition patients were monitored by phone calls to note any adverse events and to determine whether to increase the dosage of the study drug, to decrease levodopa and to decrease domperidone. The time schedule of phone calls was variable and the frequency mostly dependent on the presence of simultaneous levodopa therapy.
Inclusion criteria. Patients were included if they fulfilled the minimal diagnostic criteria according to the International RLS Study Group. After rating clinical symptoms at baseline, patients were referred to polysomnography without any RLS specific treatment other than levodopa. Patients were included if they had more than five PLM per hour of time-in-bed (PLM index) and a sleep efficiency index (total sleep time per hour time-in-bed) of less than 85%.
Exclusion criteria. Patients with signs of any other sleep disorder on PSG, especially sleep apnea syndrome (respiratory disturbances index >5 per hour total sleep time), were excluded. Subjects receiving neuroleptic, antidepressant or other psychotropic medications or with any severe additional illness (with special consideration to pulmonary fibrosis) or drug abuse were also excluded. Patients with established or suspected hypersensitivity to ergot derivates and patients with clinical significant change in routine laboratory studies were not included. Pregnant or lactating women or women without safe contraception were not allowed to participate in this study.
Dosing. Study medication was available in tablets containing 0.5 mg, 1 mg or 2 mg Cabergoline (Cabaseril®, Pharmacia & Upjohn, Erlangen, Germany). Medication was taken 2 hours prior to bedtime. Initial therapy consisted of one 0.5 mg tablet. […] The increased dose could be decreased again if necessary. All patients were initially comedicated with domperidone 20 mg t.i.d. which could be tapered and stopped if possible. Subjects who were pretreated with levodopa were asked to decrease levodopa simultaneously if possible.
Polysomnographic studies. At baseline and at the study end after 12 weeks PSG recordings were performed for one night (11 p.m.-7 a.m.) to evaluate inclusion/exclusion criteria and to obtain primary and secondary efficacy parameters. Studies included monitoring of electroencephalogram (EEG) (C3-A2, C4-A1), electrooculogram, chin EMG, EMG of both anterior tibialis muscles and electrocardiogram (ECG). PSG methods used standard procedures such as Pollmacher and Schultz. At baseline respiration, oronasal airflow, respiration effort and oxygen saturation were monitored by standard methods. Sleep scoring was also done by methods. […]

[2] = cited to Ahlskog et al. 1996; cited from earlier work

Structure (SMILES): C=CCN1C[C@H](C(=O)N(CCCN(C)C)C(=O)NCC)C[C@@H]2c3cccc4[nH]cc(c34)C[C@H]21 [Cabergoline, 1((6-allylergolin-8β-yl) -carbony.)-1-(3-(dimethylamino)propyl)-3-ethylurea]
- D2 family agonist activity (in words) (D2 family of receptors): full D2 family agonist
- increase in total sleep time ([1]; endpoint vs. baseline): more than one
- reduction of PLM during time in bed, PLM arousals and PLM awakenings (in words) ([1]; endpoint vs. baseline): significant reduction
- sleep efficiency (in words) ([1]; endpoint vs. baseline): increased
- sleep latency (in words) ([1]; endpoint vs. baseline): shortened
- total sleep time (in words) ([1]; endpoint vs. baseline): prolonged
- total number of PLM during time in bed (No. Of PLM) ([1]; week 12, cabergoline monotherapy (mean 2.1 mg, single evening dose), baseline 195.8 ± 109.1): 26.4±40.2
- number of PLM awakenings ([1]; week 12, cabergoline monotherapy, baseline 9.6 ± 4.9): 1.0±2.0
- PLM arousal index ([1]; week 12, cabergoline monotherapy, baseline 10.4 ± 7.8): 1.0±1.7 number of PLM arousals per hou
- PLM index ([1]; week 12, cabergoline monotherapy, baseline 27.7 ± 17.1): 3.6±5.3 number of PLM per hour time in
- Sleep Latency ([1]; week 12, cabergoline monotherapy, baseline 42.4 ± 49.1): 16.3 ± 22.8 min
- PLM arousals ([1]; week 12, cabergoline monotherapy, baseline 51.7 ± 42.3): 6.4±11.2
- Sleep efficiency ([1]; week 12, cabergoline monotherapy, baseline 63.1 ± 10.5): 79.1±12.5%
- Total sleep time ([1]; week 12, cabergoline monotherapy, baseline 302.7 ± 50.7): 379.4 ± 59.8 min
- duration of action [2]: at least 24 hours
